One assay concerns the target Human M3 receptor (Homo sapiens, UniProt P20309). Conditions: read-out: M3 binding affinity.
A further assay concerns the target Human β2 adrenoceptor (Homo sapiens, UniProt P07550). The settings on record: read-out: B2 binding affinity.

The text below walks through data of patent US9579314B2 (priority 2015, dated 2017).

Human β2 adrenoceptor, sequence (P07550 whole entry): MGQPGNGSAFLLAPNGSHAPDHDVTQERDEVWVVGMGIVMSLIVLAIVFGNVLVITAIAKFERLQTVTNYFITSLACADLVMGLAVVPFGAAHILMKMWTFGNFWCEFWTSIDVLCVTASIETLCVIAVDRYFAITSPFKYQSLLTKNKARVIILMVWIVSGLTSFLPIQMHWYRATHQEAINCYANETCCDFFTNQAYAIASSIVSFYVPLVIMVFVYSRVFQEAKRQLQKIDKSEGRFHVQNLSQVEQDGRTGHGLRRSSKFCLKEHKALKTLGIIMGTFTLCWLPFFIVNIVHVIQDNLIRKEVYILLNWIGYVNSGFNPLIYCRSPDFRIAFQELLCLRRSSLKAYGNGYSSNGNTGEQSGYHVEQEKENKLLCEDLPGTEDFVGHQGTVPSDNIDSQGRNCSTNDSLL
Human M3 receptor, sequence (P20309 whole entry): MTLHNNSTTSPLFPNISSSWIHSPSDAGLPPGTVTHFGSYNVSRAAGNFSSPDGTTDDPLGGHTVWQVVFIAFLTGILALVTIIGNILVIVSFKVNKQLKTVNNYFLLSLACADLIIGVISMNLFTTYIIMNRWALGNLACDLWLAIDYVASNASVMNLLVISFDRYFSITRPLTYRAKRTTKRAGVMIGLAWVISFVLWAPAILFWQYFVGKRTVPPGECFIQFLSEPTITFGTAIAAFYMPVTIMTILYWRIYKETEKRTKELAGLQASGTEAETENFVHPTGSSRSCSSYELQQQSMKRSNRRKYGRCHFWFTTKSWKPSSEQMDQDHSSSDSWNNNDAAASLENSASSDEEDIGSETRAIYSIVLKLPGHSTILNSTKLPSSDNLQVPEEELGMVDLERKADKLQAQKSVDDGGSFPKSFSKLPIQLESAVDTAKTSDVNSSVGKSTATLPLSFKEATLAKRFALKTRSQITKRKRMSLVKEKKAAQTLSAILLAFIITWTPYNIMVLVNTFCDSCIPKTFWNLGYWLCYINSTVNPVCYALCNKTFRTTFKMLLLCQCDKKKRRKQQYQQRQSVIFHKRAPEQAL

As to `O=C(NCCCOc1cccc([C@](O)(C(=O)OCC2CCN(Cc3ccccc3)CC2)c2ccccc2)c1)c1ccc(CNC[C@H](O)c2ccc(O)c3[nH]c(=O)ccc23)c(OC(F)(F)F)c1` [Compound 32E, (S)-(1-benzylpiperidin-4-yl)methyl 2-hydroxy-2-(3-(3-(4-((((R)-2-hydroxy-2-(8-hydroxy-2-oxo-1,2-dihydroquinolin-5-yl)ethyl)amino)methyl)-3-(trifluoromethoxy)benzamido)propoxy)phenyl)-2-phenylacetate], the IC50 on Human M3 receptor and on Human β2 adrenoceptor was 0.3 to 3 nM throughout.
Take `O=C(OCC1CCN(Cc2ccccc2)CC1)C(O)(c1ccccc1)c1cccc(OCCCCCNC[C@H](O)c2ccc(O)c3[nH]c(=O)ccc23)c1` (stereo partly drawn) [Compound 1, (1-Benzylpiperidin-4-yl)methyl 2-hydroxy-2-(3-((5-(((R)-2-hydroxy-2-(8-hydroxy-2-oxo-1,2-dihydroquinolin-5-yl)ethyl)amino)pentyl)oxy)phenyl)-2-phenylacetate]: the values for the IC50 at Human M3 receptor and on Human β2 adrenoceptor were 0.3 to 3 nM and less than 0.3 nM, respectively.
For `O=C(COc1cccc([C@](O)(C(=O)OCC2CCN(Cc3ccccc3)CC2)c2ccccc2)c1)N1C[C@@H]2CCN(C(=O)c3ccc(CCNC[C@H](O)c4ccc(O)c5[nH]c(=O)ccc45)cc3)[C@@H]2C1` [Compound 112, (1-benzylpiperidin-4-yl)methyl (S)-2-hydroxy-2-(3-(2-((3aS,6aS)-1-(4-(2-(((R)-2-hydroxy-2-(8-hydroxy-2-oxo-1,2-dihydroquinolin-5-yl)ethyl)amino)ethyl)benzoyl)hexahydropyrrolo[3,4-b]pyrrol-5(1H)-yl)-2-oxoethoxy)phenyl)-2-phenylacetate], in that order: 0.3 to 3 nM and less than 0.3 nM.
For `O=C(OCC1CCN(Cc2ccccc2)CC1)[C@](O)(c1ccccc1)c1cccc(OCCCCCNC[C@H](O)c2ccc(O)c3[nH]c(=O)ccc23)c1` [Compound 13, (S)-(1-Benzylpiperidin-4-yl)methyl 2-hydroxy-2-(3-((5-(((R)-2-hydroxy-2-(8-hydroxy-2-oxo-1,2-dihydroquinolin-5-yl)ethyl)amino)pentyl)oxy)phenyl)-2-phenylacetate], in that order: less than 0.3 nM and less than 0.3 nM.
`O=C(COc1cccc([C@](O)(C(=O)OCC2CCN(Cc3ccccc3)CC2)c2ccccc2)c1)N[C@@H]1CCCN(C(=O)c2ccc(CNC[C@H](O)c3ccc(O)c4[nH]c(=O)ccc34)cc2)C1` [Compound 71, (1-benzylpiperidin-4-yl)methyl (S)-2-hydroxy-2-(3-(2-(((R)-1-(4-((((R)-2-hydroxy-2-(8-hydroxy-2-oxo-1,2-dihydroquinolin-5-yl)ethyl)amino)methyl)benzoyl)piperidin-3-yl)amino)-2-oxoethoxy)phenyl)-2-phenylacetate]: the IC50 is 0.3 to 3 nM at Human M3 receptor and greater than 3 nM on Human β2 adrenoceptor.
For `O=C(NCCCOc1cccc([C@](O)(C(=O)OCC2CCN(Cc3ccccc3)CC2)c2ccccc2)c1)c1ccc(CNC[C@H](O)c2ccc(O)c3[nH]c(=O)ccc23)c(C(F)(F)F)c1` [Compound 32M, (S)-(1-benzylpiperidin-4-yl)methyl (S)-2-hydroxy-2-(3-(3-(4-((((R)-2-hydroxy-2-(8-hydroxy-2-oxo-1,2-dihydroquinolin-5-yl)ethyl)amino)methyl)-3-(trifluoromethyl)benzamido)propoxy)phenyl)-2-phenylacetate], in that order: 0.3 to 3 nM and greater than 3 nM.
For the compound `O=C(c1cccc(COc2cccc([C@](O)(C(=O)OCC3CCN(Cc4ccccc4)CC3)c3ccccc3)c2)c1)N1CCC(CNC[C@H](O)c2ccc(O)c3[nH]c(=O)ccc23)CC1` [Compound 35, (S)-(1-benzylpiperidin-4-yl)methyl 2-hydroxy-2-(3-((3-(4-((((R)-2-hydroxy-2-(8-hydroxy-2-oxo-1,2-dihydroquinolin-5-yl)ethyl)amino)methyl)-piperidine-1-carbonyl)benzyl)oxy)phenyl)-2-phenylacetate], the IC50 at Human M3 receptor and on Human β2 adrenoceptor was less than 0.3 nM each time.
Turning to `O=C(OCC1CCN(Cc2ccccc2)CC1)[C@](O)(c1ccccc1)c1cccc(OCCCCCCCNC[C@H](O)c2ccc(O)c3[nH]c(=O)ccc23)c1` [Compound 28, (S)-(1-benzylpiperidin-4-yl)methyl 2-hydroxy-2-(3-((7-(((R)-2-hydroxy-2-(8-hydroxy-2-oxo-1,2-dihydroquinolin-5-yl)ethyl)amino)heptyl)oxy)phenyl)-2-phenylacetate], the IC50 on Human M3 receptor and at Human β2 adrenoceptor was 0.3 to 3 nM in each case.
Consider `COc1c(CNC[C@H](O)c2ccc(O)c3[nH]c(=O)ccc23)ccc(C(=O)NCCCOc2cccc([C@](O)(C(=O)OCC3CCN(Cc4ccccc4)CC3)c3ccccc3)c2)c1F` [Compound 32F, (S)-(1-benzylpiperidin-4-yl)methyl 2-(3-(3-(2-fluoro-4-((((R)-2-hydroxy-2-(8-hydroxy-2-oxo-1,2-dihydroquinolin-5-yl)ethyl)amino)methyl)-3-methoxybenzamido)propoxy)phenyl)-2-hydroxy-2-phenylacetate], for which the IC50 was 0.3 to 3 nM on Human M3 receptor and less than 0.3 nM on Human β2 adrenoceptor.
The like results for `CN1CCC(COC(=O)[C@@](O)(c2ccccc2)c2cccc(OCCCCCNC[C@H](O)c3ccc(O)c4[nH]c(=O)ccc34)c2)CC1` [Compound 24, (R)-(1-methylpiperidin-4-yl)methyl 2-hydroxy-2-(3-((5-(((R)-2-hydroxy-2-(8-hydroxy-2-oxo-1,2-dihydroquinolin-5-yl)ethyl)amino)pentyl)oxy)phenyl)-2-phenylacetate] were, in that order, greater than 3 nM and less than 0.3 nM.
For `O=C(c1ccc(COc2cccc([C@](O)(C(=O)OCC3CCN(Cc4ccccc4)CC3)c3ccccc3)c2)cc1)N1CCC2(CC1)CN(C(=O)c1ccc(CCNC[C@H](O)c3ccc(O)c4[nH]c(=O)ccc34)cc1)C2` [Compound 119, (1-benzylpiperidin-4-yl)methyl (S)-2-hydroxy-2-(3-((4-(2-(4-(2-(((R)-2-hydroxy-2-(8-hydroxy-2-oxo-1,2-dihydroquinolin-5-yl)ethyl)amino)ethyl)benzoyl)-2,7-diazaspiro[3.5]nonane-7-carbonyl)benzyl)oxy)phenyl)-2-phenylacetate], in that order: less than 0.3 nM and 0.3 to 3 nM.
The like results for `O=C(OCC1CCN(Cc2ccccc2)CC1)[C@](O)(c1ccccc1)c1cccc(OCCCCCCNCC(O)c2ccc(O)c3[nH]c(=O)ccc23)c1` (stereo in doubt) [Compound 29, (S)-(1-benzylpiperidin-4-yl)methyl 2-hydroxy-2-(3-((6-(((R)-2-hydroxy-2-(8-hydroxy-2-oxo-1,2-dihydroquinolin-5-yl)ethyl)amino)hexyl)oxy)phenyl)-2-phenylacetate] were, in that order, less than 0.3 nM and less than 0.3 nM.
As for `O=C(NC1CCN(C(=O)COc2cccc([C@](O)(C(=O)OCC3CCN(Cc4ccccc4)CC3)c3ccccc3)c2)CC1)c1ccc(CCNC[C@H](O)c2ccc(O)c3[nH]c(=O)ccc23)cc1` [Compound 92, (1-benzylpiperidin-4-yl)methyl (S)-2-hydroxy-2-(3-(2-(4-(4-(2-(((R)-2-hydroxy-2-(8-hydroxy-2-oxo-1,2-dihydroquinolin-5-yl)ethyl)amino)ethyl)benzamido)piperidin-1-yl)-2-oxoethoxy)phenyl)-2-phenylacetate], the IC50 at Human M3 receptor and on Human β2 adrenoceptor was less than 0.3 nM each time.
In the case of `CCc1ccccc1C(O)(C(=O)OCC1CCN(Cc2ccccc2)CC1)c1cccc(OCCCCCNC[C@H](O)c2ccc(O)c3[nH]c(=O)ccc23)c1` (stereo partly drawn) [Compound 8, (1-benzylpiperidin-4-yl)methyl 2-(2-ethylphenyl)-2-hydroxy-2-(3-((5-(((R)-2-hydroxy-2-(8-hydroxy-2-oxo-1,2-dihydroquinolin-5-yl)ethyl)amino)pentyl)oxy)phenyl)acetate], the IC50 at Human M3 receptor was greater than 3 nM; at Human β2 adrenoceptor, 0.3 to 3 nM.
The like results for `O=C(COc1cccc([C@](O)(C(=O)OCC2CCN(Cc3ccccc3)CC2)c2ccccc2)c1)N[C@H]1CC[C@H](C(=O)N2CCC(CNC[C@H](O)c3ccc(O)c4[nH]c(=O)ccc34)CC2)CC1` [Compound 149, (1-benzylpiperidin-4-yl)methyl (S)-2-hydroxy-2-(3-(2-(((1R,4S)-4-(4-((((R)-2-hydroxy-2-(8-hydroxy-2-oxo-1,2-dihydroquinolin-5-yl)ethyl)amino)methyl)piperidine-1-carbonyl)cyclohexyl)amino)-2-oxoethoxy)phenyl)-2-phenylacetate] were, in that order, less than 0.3 nM and 0.3 to 3 nM.
As for `O=C(N[C@H]1C[C@H](NC(=O)c2ccc(COc3cccc([C@](O)(C(=O)OCC4CCN(Cc5ccccc5)CC4)c4ccccc4)c3)cc2)C1)c1ccc(CNC[C@H](O)c2ccc(O)c3[nH]c(=O)ccc23)cc1` [Compound 123, (1-benzylpiperidin-4-yl)methyl (S)-2-hydroxy-2-(3-((4-(((1R,3S)-3-(4-((((R)-2-hydroxy-2-(8-hydroxy-2-oxo-1,2-dihydroquinolin-5-yl)ethyl)amino)methyl)benzamido)cyclobutyl)carbamoyl)benzyl)oxy)phenyl)-2-phenylacetate], the IC50 at Human M3 receptor and at Human β2 adrenoceptor was 0.3 to 3 nM throughout.
With `O=C(COc1cccc([C@](O)(C(=O)OCC2CCN(Cc3ccccc3)CC2)c2ccccc2)c1)N1CC(C(=O)N2CCC(CNC[C@H](O)c3ccc(O)c4[nH]c(=O)ccc34)CC2)C1` [Compound 147, (1-Benzylpiperidin-4-yl)methyl (S)-2-hydroxy-2-(3-(2-(3-(4-((((R)-2-hydroxy-2-(8-hydroxy-2-oxo-1,2-dihydroquinolin-5-yl)ethyl)amino)methyl)piperidine-1-carbonyl)azetidin-1-yl)-2-oxoethoxy)phenyl)-2-phenylacetate], the figures for the IC50 on Human M3 receptor and at Human β2 adrenoceptor were 0.3 to 3 nM and less than 0.3 nM, respectively.
For `O=C(NCCCNC[C@H](O)c1ccc(O)c2[nH]c(=O)ccc12)c1ccc(COc2cccc([C@](O)(C(=O)OCC3CCN(Cc4ccccc4)CC3)c3ccccc3)c2)cc1` [Compound 43, (S)-(1-Benzylpiperidin-4-yl)methyl 2-hydroxy-2-(3-((4-((3-(((R)-2-hydroxy-2-(8-hydroxy-2-oxo-1,2-dihydroquinolin-5-yl)ethyl)amino)propyl)carbamoyl)benzyl)oxy)phenyl)-2-phenylacetate], in that order: less than 0.3 nM and less than 0.3 nM.
